Reference: PMC10247784, “Physiological activation of human and mouse bitter taste receptors by bile acids” (Communications Biology, 2023)

Biological target: T1, mouse Tas2r105 (Mus musculus, UniProt Q9JKT4)
T1 construct: expressed in transfected cells; host or cells: HEK293T-Gα16gust44
T1 sequence (Q9JKT4 1-300): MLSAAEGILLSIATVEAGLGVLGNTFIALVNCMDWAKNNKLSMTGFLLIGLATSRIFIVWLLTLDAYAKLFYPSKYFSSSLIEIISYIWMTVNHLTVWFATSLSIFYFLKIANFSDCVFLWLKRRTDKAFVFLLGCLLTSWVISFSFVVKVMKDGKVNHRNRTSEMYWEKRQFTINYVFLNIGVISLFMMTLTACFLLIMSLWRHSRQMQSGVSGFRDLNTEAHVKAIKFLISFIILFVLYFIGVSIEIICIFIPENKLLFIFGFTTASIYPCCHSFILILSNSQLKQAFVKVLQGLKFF
Assay: Calcium imaging assay (FLIPR), HEK293T-Gα16gust44 cells transfected with mouse Tas2r105
Format: cell-based

C[C@H](CCC(=O)O)[C@H]1CC[C@H]2[C@@H]3CC[C@@H]4C[C@H](O)CC[C@]4(C)[C@H]3C[C@H](O)[C@]12C [Deoxycholic Acid, deoxycholic acid]
RLU (Time 0 s): 0 RLU | RLU (Time 2 s): -7.941 RLU | RLU (Time 4 s): 8.425 RLU | RLU (Time 6 s): -2.576 RLU | RLU (Time 8 s): 14.8013 RLU | RLU (Time 12 s): -9.724 RLU | RLU (Time 14 s): -8.452 RLU | RLU (Time 16 s): 1.889 RLU | RLU (Time 18 s): -2.18 RLU | RLU (Time 18.781 s): -20.0658 RLU | RLU (Time 20.781 s): -17.0266 RLU | RLU (Time 22.781 s): -39.9091 RLU | RLU (Time 24.781 s): 0.577 RLU | RLU (Time 26.781 s): -0.6161 RLU | RLU (Time 28.781 s): 4.903 RLU | RLU (Time 30.781 s): -6.367 RLU | RLU (Time 32.781 s): -0.4375 RLU | RLU (Time 34.781 s): 4.775 RLU | RLU (Time 36.781 s): -8.6591 RLU | RLU (Time 38.781 s): -14.3055 RLU | RLU (Time 40.781 s): 9.418 RLU | RLU (Time 42.781 s): -11.7018 RLU | RLU (Time 44.781 s): -11.9371 RLU | RLU (Time 46.781 s): 4.597 RLU | RLU (Time 48.781 s): 27.0511 RLU | RLU (Time 50.781 s): -9.756 RLU | RLU (Time 52.781 s): 20.1786 RLU | RLU (Time 54.781 s): 19.4961 RLU | RLU (Time 56.781 s): 5.269 RLU | RLU (Time 58.781 s): 38.5167 RLU | RLU (Time 60.781 s): 24.5618 RLU | RLU (Time 62.781 s): 36.5379 RLU | RLU (Time 64.781 s): 21.9337 RLU | RLU (Time 66.781 s): 35.0054 RLU | RLU (Time 68.781 s): 34.4928 RLU | RLU (Time 70.781 s): 42.8161 RLU | RLU (Time 72.781 s): 53.1321 RLU | RLU (Time 74.781 s): 54.3186 RLU | RLU (Time 76.781 s): 66.018 RLU | RLU (Time 78.781 s): 45.8125 RLU | RLU (Time 80.781 s): 59.5249 RLU | RLU (Time 82.781 s): 62.7416 RLU | RLU (Time 84.781 s): 68.7087 RLU | RLU (Time 86.781 s): 90.9377 RLU | RLU (Time 88.781 s): 81.07 RLU | RLU (Time 90.781 s): 72.636 RLU | RLU (Time 92.781 s): 97.4301 RLU | RLU (Time 94.781 s): 105.551 RLU | RLU (Time 96.781 s): 100.341 RLU | RLU (Time 98.781 s): 103.309 RLU | RLU (Time 100.781 s): 117.485 RLU | RLU (Time 102.781 s): 130.646 RLU | RLU (Time 104.781 s): 147.286 RLU | RLU (Time 106.781 s): 108.305 RLU | RLU (Time 108.781 s): 142.084 RLU | RLU (Time 110.781 s): 147.264 RLU | RLU (Time 112.781 s): 118.273 RLU | RLU (Time 114.781 s): 167.002 RLU | RLU (Time 116.781 s): 149.721 RLU | RLU (Time 118.781 s): 160.265 RLU | RLU (Time 120.781 s): 160.404 RLU | RLU (Time 122.781 s): 193.86 RLU | RLU (Time 124.781 s): 179.508 RLU | RLU (Time 126.781 s): 161.679 RLU | RLU (Time 128.781 s): 158.603 RLU | RLU (Time 130.781 s): 180.418 RLU | RLU (Time 132.781 s): 180.045 RLU | RLU (Time 134.781 s): 177.913 RLU | RLU (Time 136.781 s): 194.619 RLU | RLU (Time 137.562 s): 177.939 RLU | RLU (Time 143.562 s): 180.507 RLU | RLU (Time 149.562 s): 188.634 RLU | RLU (Time 155.562 s): 199.157 RLU | RLU (Time 161.562 s): 206.349 RLU | RLU (Time 167.562 s): 208.396 RLU | RLU (Time 173.562 s): 211.199 RLU | RLU (Time 179.562 s): 201.145 RLU | RLU (Time 185.562 s): 195.662 RLU | RLU (Time 191.562 s): 211.659 RLU | RLU (Time 197.562 s): 209.959 RLU | RLU (Time 203.562 s): 191.361 RLU | RLU (Time 209.562 s): 208.831 RLU | RLU (Time 215.562 s): 204.186 RLU | RLU (Time 221.562 s): 168.101 RLU | RLU (Time 227.562 s): 191.058 RLU | RLU (Time 233.562 s): 174.166 RLU | RLU (Time 239.562 s): 185.934 RLU | RLU (Time 245.562 s): 176.351 RLU | RLU (Time 293.562 s): 157.143 RLU | RLU (Time 299.562 s): 147.048 RLU | RLU (Time 305.562 s): 138.332 RLU | RLU (Time 311.562 s): 135.378 RLU | RLU (Time 317.562 s): 138.908 RLU | RLU (Time 323.562 s): 128.724 RLU | RLU (Time 329.562 s): 125.639 RLU | RLU (Time 335.562 s): 124.441 RLU | RLU (Time 341.562 s): 111.174 RLU | RLU (Time 347.562 s): 105.923 RLU | RLU (Time 353.562 s): 95.2183 RLU | RLU (Time 359.562 s): 94.5256 RLU | Activation threshold concentration Tas2r105 (p < 0.01 vs empty vector): 10 µM
